Several values for one entry are separate records, joined by “and”; a condition that tells them apart may be missing. Identical values can stand only once.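 Assay format: 96-well plates, 48-hour exposure. Here, GI50 denotes the concentration required for 50% inhibition of growth. The concentration for full growth arrest is given as TGI.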
Experiments:
Assay in all cases: NCI tumour cell line growth inhibition, 48 h
[1] = tested on: UACC-257 melanoma
[2] = tested on: SW-620 colon
[3] = tested on: SK-OV-3 ovarian
[4] = tested on: HOP-62 NSCLC
[5] = tested on: A498 renal
[6] = tested on: RXF 393 renal
[7] = tested on: TK-10 renal
[8] = tested on: SF-268 CNS
[9] = tested on: NCI-H522 lung

SMILES | TGI [1] [µM] | TGI [2] [µM] | TGI [3] [µM] | TGI [4] [µM] | TGI [5] [µM] | TGI [6] [µM] | TGI [7] [µM] | TGI [8] [µM] | TGI [9] | GI50 [2] | GI50 [3] [µM] | GI50 [4] [µM] | GI50 [6] [µM] | GI50 [7] [µM] | GI50 [8] | GI50 [9]
CCc1oc2ccc(OC)c3c2c1C=CC=C3 | > 100 | > 100 | > 100 | > 100 | > 100 | > 100 | > 100 | > 100 | > 100 µM | – | – | – | – | – | – | –
CC(C)(C)C[P+](C)(C)c1ccccc1 | > 100 | > 100 | > 100 | > 100 | – | > 100 | > 100 | > 100 | – | – | – | – | – | – | – | –
COC(=O)C1=Cc2c(OC)cc(OC)c(OC)c2[C@H](c2cc(OC)c(OC)cc2OC)C1C(=O)OC (stereo partly drawn) | – | > 100 | > 100 | > 100 | > 100 | > 100 | > 100 | > 100 | > 100 µM | – | – | – | – | – | – | –
CP(C)C.[Ag][I] | > 100 | > 100 | > 100 | > 100 | – | > 100 | > 100 | > 100 | – | – | – | – | – | – | – | –
N#CC12Cc3ccc4c(c3-c3cccc(c31)CCN2C(=O)c1ccccc1)OCO4 (stereo not drawn) | > 100 | > 100 | > 100 | > 100 | > 100 | > 100 | > 100 | > 100 | – | – | – | – | – | – | – | –
Cc1cccc(N=C2NC(=O)C(CC(=O)Nc3ccc(Cl)cc3C)S2)c1 (stereo not drawn) | > 100 | > 100 | > 100 | > 100 | > 100 | > 100 | > 100 | > 100 | > 100 µM | – | – | – | – | – | – | –
CCOC(=O)N1CCC(=O)C[C@@H]1C/C=C/P1(=O)O[C@H](c2ccccc2)C(C)N1C(C)C (stereo partly drawn) | > 100 | > 100 | > 100 | – | – | > 100 | > 100 | > 100 | > 100 µM | – | – | – | – | – | – | –
CC1=NN(c2ccccc2)C(=O)C1N=Nc1ccc(Br)c(C)c1 (stereo not drawn) | > 100 | > 100 | > 100 | > 100 | > 100 | > 100 | > 100 | – | – | – | – | – | – | – | – | –
OC(c1ccccc1)c1c(-c2ccccc2)oc(-c2ccccc2)c1C(O)c1ccccc1 (stereo not drawn) | – | 34.1 | 30.1 | 27.9 | 30.4 | 21.5 | 29 | 25.5 | 11.1 µM | – | – | – | – | – | – | –
C[C@]12CCCC(=O)C1C[C@H](C(=O)O)CC2 (stereo partly drawn) | > 100 | > 100 | > 100 | > 100 | > 100 | – | > 100 | > 100 | > 100 µM | – | – | – | – | – | – | –
O=[N+]([O-])c1cc(/C=N/NS(=O)(=O)c2ccc(F)cc2)c(O)c([N+](=O)[O-])c1 | > 100 | > 100 | 78.3 | > 100 | 78.1 | 84.9 | > 100 | > 100 | 46.3 µM | – | – | – | – | – | – | –
CC12OC3CC(O1)C1(C=O)C4CCC5(C)C(c6ccc(=O)oc6)CCC5(O)C4CCC1(C3)O2 (stereo not drawn) | 0.774 | 1.27 | 0.513 | 0.348 | 1.35 | 0.256 | 0.472 | 0.229 | 0.317 µM | – | – | – | – | – | – | –
O=C1CCC(=O)C(C(=O)CCC(=O)Nc2cccc(Cl)c2)C1 (stereo not drawn) | > 100 | > 100 | > 100 | > 100 | > 100 | > 100 | > 100 | – | > 100 µM | – | – | – | – | – | – | –
NC(=O)CCC(NC(=O)C(F)(F)F)C(=O)O (stereo not drawn) | > 100 | > 100 | > 100 | > 100 | > 100 | > 100 | > 100 | > 100 | > 100 µM | – | – | – | – | – | – | –
Cc1cc(C)c2[s+]snc2c1 | > 100 | > 100 | > 100 | > 100 | > 100 | 91.6 | > 100 | > 100 | 77.6 µM | – | – | – | – | – | – | –
OC1C2C=CCC1CCC2 (stereo not drawn) | > 100 | > 100 | > 100 | > 100 | > 100 | > 100 | > 100 | > 100 | > 100 µM | – | – | – | – | – | – | –
CCOC(=O)C1(Cc2ccc3ccccc3c2)CCCCCN1 (stereo not drawn) | – | 64.9 | > 100 | > 100 | – | 83.2 | > 100 | > 100 | – | – | – | – | – | – | – | –
O=c1[nH]c2c(O)cccc2c2cc3c(c(O)c12)OCO3 | 47.6 | > 100 | 84.7 | 61.8 | 56.5 | – | > 100 | 94.2 | 63.4 µM | – | – | – | – | – | – | –
CC(C)[O-].CC(C)[O-].[O-]c1cccc2cccnc12.[O-]c1cccc2cccnc12.[Ti+4] | > 100 | > 100 | > 100 | > 100 | – | 6.04 | > 100 | > 100 | 2.84 µM and 5.68 µM | 6.47 µM and 5.89 µM | > 100 | > 100 | 2.42 | 34.4 | 6.4 µM and 51.1 µM | 1.41 µM and 1.93 µM
Cc1cc2c(cc1C)[n+]([O-])c(-c1c(Cl)cccc1Cl)c(N)[n+]2[O-] | 83.6 | > 100 | > 100 | 96.8 | 79.9 | – | > 100 | > 100 | 28 µM | – | – | – | – | – | – | –

Reference: PubChem BioAssay (NCI)
